The text below walks through data of patent US6525059B1, “Substituted pyrazoles as p38 kinase inhibitors” (G. D. Searle & Company, priority 1998, dated 2003).

The test system of series [1] is TNF alpha. Briefly: Mouse model of LPS-induced TNF alpha production. Type of series: in vivo. The note with it: mouse, oral, 1h before LPS, 30 mpk; read-out: mLPS 1h, 30 mpk percent inhibition. Here is the method: TNF alpha was induced in 10-12 week old BALB/c female mice by tail vein injection with 100 ng lipopolysaccharide (from S. Typhosa) in 0.2 ml saline. One hour later mice were bled from the retroorbital sinus and TNF concentrations in serum from clotted blood were quantified by ELISA.
Efficacy was determined at each time point as percent inhibition of serum TNF levels relative to LPS injected mice that received vehicle only
wherein in the dose is milligram per kilogram (mpk) administered by oral gavage and the predose time indicates the number of hours before LPS challenge when the compound is administered.

The test system of series [2] is TNF-α. Briefly: LPS stimulation of TNF production by U937 cells. The following applies: Homo sapiens, U-937, LPS-stimulated U937 cells; read-out: U937 IC50. Type of series: cell-based, human. The method in brief: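 PMA-differentiated human U937 cells (20 ng/ml PMA, 24 h, then 24-48 h rest) at 2 million cells/ml, 0.1% DMSO final, stimulated with E. coli LPS (100 ng/ml final) for 4 h at 37° C. TNF-α in medium measured by ELISA; IC50 in μM.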

The target of series [3] is T1, human GST-p38 kinase alpha (Homo sapiens, UniProt Q16539).
T1 construct: The coding region of the human p38a cDNA was obtained by PCR-amplification from RNA isolated from the human monocyte cell line THP.1; made in house; host or cells: E. coli DH10B
Nature of the series: p38 kinase in vitro assay, second format, phosphorylation of EGFRP with 33P-ATP. Type of series: biochemical. The following applies: p38α in vitro, EGFRP assay procedure; read-out: p38^2 IC50. In short, it runs like this:
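Activated human GST-p38α (pre-activated with GST-MKK6, 1 h, 30 °C) phosphorylates EGFR 21-mer peptide (200 μM) with 50 μM ATP plus γ-33P-ATP, pH 7.5, 60 min at room temperature. Unreacted ATP removed by AG 1×8 resin; supernatant scintillation-counted.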

Series [4] addresses T2, human p38 kinase alpha (Homo sapiens, UniProt Q16539).
T2 construct: The coding region of the human p38a cDNA was obtained by PCR-amplification from RNA isolated from the human monocyte cell line THP.1; GST (N); made in house; host or cells: E. coli DH10B
Nature of the series: p38 kinase in vitro assay, phosphorylation of biotinylated PHAS-I with gamma 32P-ATP. Type of series: biochemical. The following applies: p38α in vitro, PHAS-I assay procedure; read-out: p38^1 IC50. In short, it runs like this:
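Radiometric filter-capture read-out: streptavidin plates trap biotin-PHAS-I labelled by activated (MKK6) human p38α from γ-32P-ATP. Buffer 25 mM HEPES pH 7.5, 10 mM magnesium acetate, 50 μM cold ATP; reactions 1 h or overnight at 30 °C; inhibitors 10-fold dilutions 100 to 0.001 μM, triplicates, 1% DMSO.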

T2 sequence (Q16539 whole entry): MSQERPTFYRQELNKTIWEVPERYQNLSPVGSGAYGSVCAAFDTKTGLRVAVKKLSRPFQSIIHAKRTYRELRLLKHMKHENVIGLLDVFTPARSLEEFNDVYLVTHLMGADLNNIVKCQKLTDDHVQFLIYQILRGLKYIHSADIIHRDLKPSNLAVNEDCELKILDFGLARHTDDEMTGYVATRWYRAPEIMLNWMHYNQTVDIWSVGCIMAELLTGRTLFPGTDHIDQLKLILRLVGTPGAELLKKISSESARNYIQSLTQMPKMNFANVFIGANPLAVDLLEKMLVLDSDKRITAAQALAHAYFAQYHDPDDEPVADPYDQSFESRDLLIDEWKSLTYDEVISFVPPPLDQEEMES
T1 sequence (Q16539 whole entry): as above

With `OCCn1cc(-c2ccnc(F)c2)c(-c2ccc(F)cc2)n1` [Example A-267, 3-(4-fluorophenyl)-4-(2-fluoro-4-pyridinyl)-1H-pyrazole-1-ethanol], the inhibition in vivo at 30 mg/kg in series [1] was 80%. Moreover, the figures for the IC50 in series [2] and in series [3] were 2.67 µM and 0.43 µM, respectively.
For the compound `Cc1cnccc1-c1c[nH]nc1-c1ccc(F)cc1` [Example A-258, 4-[3-(4-fluorophenyl)-1H-pyrazol-4-yl]-3-methylpyridine], in series [1], the inhibition in vivo at 30 mg/kg stood at 68%. Moreover, the IC50 in series [2] came out at 1.21 µM; in series [3], 0.48 µM.
Take `c1cc(-c2c[nH]nc2-c2ccc3c(c2)OCO3)ccn1` [Example A-228, 4-[3-(1,3-benzodioxol-5-yl)-1H-pyrazol-4-yl]pyridine]: the inhibition in vivo at 30 mg/kg in series [1] came out at 92%. For the same compound, the 50% inhibitory concentration (IC50) in series [4] amounted to 0.76 µM; in series [2], 0.417 µM; in series [3], 0.339 µM.
Regarding `Cn1cc(-c2ccnc(CCc3ccc(F)cc3)c2)c(-c2ccc(F)cc2)n1` [Example A-262, 2-[2-(4-fluorophenyl)ethyl]-4-[3-(4-fluorophenyl)-1-methyl-1H-pyrazol-4-yl]pyridine], the inhibition in vivo at 30 mg/kg in series [1] was found to be 45%. Moreover, the IC50 is 0.327 µM in series [2] and less than 0.1 µM in series [3].
For `CN(C)CCn1cc(-c2ccncc2)c(-c2ccc(F)cc2)n1` [Example A-261, 3-(4-fluorophenyl)-N,N-dimethyl-4-(4-pyridinyl)-1H-pyrazole-1-ethanamine] the same measures were 92%, 0.254 µM and 0.008 µM.
For `Fc1ccc(-c2n[nH]cc2-c2ccnc(-c3c[nH]nc3-c3ccc(F)cc3)c2)cc1` [Example A-265, 2,4-bis[3-(4-fluorophenyl)-1H-pyrazol-4-yl]pyridine], the inhibition in vivo at 30 mg/kg in series [1] came to 32%. Also, the IC50 in series [2] was 0.602 µM; in series [3], less than 0.1 µM.
Consider `Cn1cc(-c2ccncc2)c(-c2ccc3c(c2)OCO3)n1` [Example A-231, 4-[3-(1,3-benzodioxol-5-y)-1-methyl-1H-pyrazol-4-yl]pyridine], for which the inhibition in vivo at 30 mg/kg in series [1] was 94%. Also, the figures for the half-inhibitory concentration (IC50) in series [2] and in series [3] were 0.323 µM and 0.174 µM, respectively.
On the same counts, the results for `Fc1ccc(-c2nn(CCN3CCOCC3)cc2-c2ccncc2)cc1` [Example A-216, 4-[2-[3-(4-fluorophenyl)-4-(4-pyridinyl)-1H-pyrazol-1-yl]ethyl)morpholine] are 91%, 1.83 µM and 0.018 µM.
On to `Cn1nc(-c2ccc(F)cc2)c(-c2ccncc2)c1Br` [Example A-214, 4-[5-bromo-3-(4-fluorophenyl)-1-methyl-1H-pyrazol-4-yl]pyridine], for which the melting point stood at 174.38 °C. The inhibition in vivo at 30 mg/kg in series [1] amounted to 70%. Also, the IC50 in series [3] was determined as 0.06 µM.
For the compound `Cn1cc(-c2ccncc2)c(-c2ccc(C(F)(F)F)cc2)n1` [Example A-252, 4-[1-methyl-3-[4-(trifluoromethyl)phenyl]-1H-pyrazol-4-yl]pyridine], the inhibition in vivo at 30 mg/kg in series [1] was found to be 75%. For the same compound, the figures for the concentration for half-maximal inhibition (IC50) in series [2] and in series [3] were 1.2 µM and 0.774 µM, respectively.
With `Cn1cc(-c2ccnc(F)c2)c(-c2ccc(F)c(F)c2)n1` [Example A-260, 4-[3-(3,4-difluorophenyl)-1-methyl-1H-pyrazol-4-yl]-2-fluoropyridine], in series [1], the inhibition in vivo at 30 mg/kg was 79%. The concentration for half-maximal inhibition (IC50) stood at 1.28 µM in series [2] and 0.23 µM in series [3].
For `FC(F)(F)c1cccc(-c2n[nH]cc2-c2ccncc2)c1` [Example A-237, 4-[3-[3-(trifluoromethyl)phenyl]-1H-pyrazol-4-yl]pyridine], the inhibition in vivo at 30 mg/kg in series [1] was 60%. In addition, the half-maximal inhibitory concentration (IC50) is 0.087 µM in series [2] and 0.093 µM in series [3].
On the same counts, the results for `CC[C@H](C)CNc1cc(-c2c[nH]nc2-c2ccc(Cl)cc2)ccn1` [Example A-245, (S)-4-[3-(4-chlorophenyl)-1H-pyrazol-4-yl]-N-(2-methylbutyl)-2-pyridinamine] are 65%, 0.0337 µM and less than 0.001 µM.
Turning to `Fc1ccc(-c2n[nH]cc2-c2ccnc(NC3CCN(Cc4ccccc4)CC3)c2)cc1` [Example A-263, 4-[3-(4-fluorophenyl)-1H-pyrazol-4-yl]-N-[1-(phenylmethyl)-4-piperidinyl]-2-pyridinamine], the inhibition in vivo at 30 mg/kg in series [1] was 49%. The IC50 is less than 0.01 µM in series [4], 0.543 µM in series [2] and less than 0.1 µM in series [3].
As for `CN(C)CCn1cc(-c2ccnc(F)c2)c(-c2ccc(F)cc2)n1` [Example A-271, 3-(4-fluorophenyl)-4-(2-fluoro-4-pyridinyl)-N,N-dimethyl-1H-pyrazole-1-ethanamine], the inhibition in vivo at 30 mg/kg in series [1] was 68%. Moreover, the 50% inhibitory concentration (IC50) in series [2] was 4.21 µM; in series [3], 0.216 µM.
For the compound `Cn1cc(-c2ccncc2)c(-c2ccc(F)cc2)n1` [Example A-212, 4-[3-(4-fluorophenyl)-1-methyl-1H-pyrazol-4-yl]pyridine], the inhibition in vivo at 30 mg/kg in series [1] turned out to be 93%. Besides, the IC50 came to 0.49 µM in series [4], 0.0967 µM in series [2] and 0.74 µM in series [3].
For the compound `Fc1ccc(-c2n[nH]cc2-c2ccnc(NCCn3ccnc3)c2)cc1` [Example A-268, 4-[3-(4-fluorophenyl)-1H-pyrazol-4-yl]-N-[2-(1H-imidazol-1-yl)ethyl]-2-pyridinamine], in series [1], the inhibition in vivo at 30 mg/kg worked out at 11%. Also, the results for the IC50 in series [2] and in series [3] were 0.0074 µM and less than 0.1 µM, respectively.
Consider `Clc1ccc(-c2n[nH]cc2-c2ccncc2)cc1` [Example A-230, 4-[3-(4-chlorophenyl)-1H-pyrazol-4-yl]pyridine], for which the inhibition in vivo at 30 mg/kg in series [1] came out at 96%. The IC50 in series [4] was determined as 0.42 µM; in series [3] it was 0.178 µM.
Take `OCCn1cc(-c2ccnc(/C=C/c3ccc(F)cc3)c2)c(-c2ccc(F)cc2)n1` [Example A-270, (E)-3-(4-fluorophenyl)-4-[2-[2-(4-fluorophenyl)ethenyl]-4-pyridinyl]-1H-pyrazole-1-ethanol]: the inhibition in vivo at 30 mg/kg in series [1] was 53%. The IC50 in series [2] was found to be 0.347 µM; in series [3], 0.015 µM.
For `N#Cc1cc(-c2c[nH]nc2-c2ccc(F)cc2)ccn1` [Example A-215, 4-[3-(4-fluorophenyl)-1H-pyrazol-4-yl]-2-pyridinecarbonitrile], the melting point was 209.22 °C. Moreover, the inhibition in vivo at 30 mg/kg in series [1] is 80%. Further, the IC50 in series [2] stood at 0.298 µM. In addition, in series [3], the half-inhibitory concentration (IC50) is 2.34 µM.
Turning to `CC(Nc1cc(-c2c[nH]nc2-c2ccc(F)cc2)ccn1)c1ccc(F)cc1` (stereo not shown) [Example A-253, N-[1-(4-fluorophenyl)ethyl]-4-[3-(4-fluorophenyl)-1H-pyrazol-4-yl]-2-pyridinamine], in series [1], the inhibition in vivo at 30 mg/kg came out at 61%. Moreover, the values for the IC50 in series [2] and in series [3] were 0.0044 µM and less than 0.001 µM, respectively.
Take `Cc1cnccc1-c1cn(C)nc1-c1ccc(F)cc1` [Example A-259, 4-[3-(4-fluorophenyl)-1-methyl-1H-pyrazol-4-yl]-3-methylpyridine]: the inhibition in vivo at 30 mg/kg in series [1] is 62%. For the same compound, the values for the IC50 in series [2] and in series [3] were 0.757 µM and 0.17 µM, respectively.

As usually defined, the IC50 is the concentration at which inhibition is half-maximal. For orientation: melting point means the temperature, or range, at which the solid turns liquid.
